The target in assay [1] is T1, Bcl-xL (Homo sapiens, UniProt Q07817).
T1 construct: Measured levels of Bcl-xL protein of HCT116 cells treated with the tested compounds; host or cells: HCT116
The experiment in a line: HCT116 Bcl-xL degradation, capillary-based immunoassay (WES). The format is cell-based. The gist of the method:
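Bcl-xL protein level by capillary WES immunoassay in HCT116 lysates, as % of untreated after cofilin normalization. Compound exposure was 24 h at 10 and 100 nM and/or a 9-point series, in quadruplicate. Four-parameter fitting gave the DC50.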

Assay [2] concerns the target T2, endogenous BCL-xL (Homo sapiens, UniProt Q07817).
T2 construct: endogenous in cells; host or cells: COR-L105 (ECACC No. 92031918); NCI-H1650 (ATCC No. CRL-5883)
The experiment in a line: Degradation of endogenous BCL-xL in COR-L105 (ProteinSimple Jess). The format is cell-based. The settings on record: COR-L105, 24 h, COR-L105, dose 300 nM, read-out: % BCL-xL vs. Untreated, COR-L105. The gist of the method: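 COR-L105 cells (2,000,000/well) treated 24 h at 37 °C with compound at 100–300 nM final, singlet, alongside untreated cells. RIPA lysates normalized by BCA to 1.5 mg/mL, then BCL-xL detected by capillary immunoassay (2–40 kDa Jess) comparing treated with untreated lysates.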

SMILES strings stand for the structures. Where only a bound is given, the exact number is not on record here.

T1 sequence (Q07817 whole entry): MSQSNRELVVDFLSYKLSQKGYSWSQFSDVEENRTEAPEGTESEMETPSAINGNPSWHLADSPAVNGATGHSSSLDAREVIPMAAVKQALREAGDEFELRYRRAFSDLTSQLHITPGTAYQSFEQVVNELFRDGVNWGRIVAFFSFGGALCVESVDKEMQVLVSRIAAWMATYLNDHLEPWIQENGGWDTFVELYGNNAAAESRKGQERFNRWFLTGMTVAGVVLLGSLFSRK
T2 sequence (Q07817 whole entry): as above

What is called DC50 is the concentration at which degradation of the target reaches its halfway point. Low values mean degradation at low concentration, high ones degradation only at high concentration. Consider `Cc1ncsc1-c1ccc(CNC(=O)[C@@H]2CC(O)CN2C(=O)C(NC(=O)CCCCCCC(=O)N2CCN(CCOC34CC5(C)CC(C)(CC(Cn6ncc(-c7ccc(N8CCCc9c8nnc(Nc8nc%10ccccc%10s8)c9C)nc7C(=O)O)c6C)(C5)C3)C4)CC2)C(C)(C)C)cc1` (stereo in doubt) [Example 24, 6-[3-(1,3-benzothiazol-2-ylamino)-4-methyl-6,7-dihydro-5H-pyrido[2,3-c]pyridazin-8-yl]-3-[1-[[3-[2-[4-[8-[[(1S)-1-[(2S,4R)-4-hydroxy-2-[[4-(4-methylthiazol-5-yl)phenyl]methylcarbamoyl]pyrrolidine-1-carbonyl]-2,2-dimethyl-propyl]amino]-8-oxo-octanoyl]piperazin-1-yl]ethoxy]-5,7-dimethyl-1-adamantyl]methyl]-5-methyl-pyrazol-4-yl]pyridine-2-carboxylic acid], for which, in assay [1] (HCT116, 24 h, 9-point serial dilution), the DC50 is > 316 nM. The compound also gave a remaining activity at 0.01 µM in assay [1] (HCT-116, HCT116, 10 nM, 24 h, % of untreated cells) of 75%. In assay [1] (HCT-116, HCT116, 100 nM, 24 h, % of untreated cells), this compound registered a remaining activity at 0.1 µM of 44%. Also, the remaining activity at 0.3 µM in assay [2] is 40%.

For the compound `Cc1ncsc1-c1ccc(CNC(=O)[C@@H]2C[C@@H](O)CN2C(=O)[C@@H](NC(=O)CCCCCCC(=O)N2CCN(CC#Cc3ccc(OCCCc4sc(N5CCCc6c5nnc(Nc5nc7ccccc7s5)c6C)nc4C(=O)O)c(F)c3)CC2)C(C)(C)C)cc1` [Example 33, 2-(3-(benzo[d]thiazol-2-ylamino)-4-methyl-6,7-dihydropyrido [2,3-c]pyridazin-8(5H)-yl)-5-(3-(2-fluoro-4-(3-(4-(8-(((S)-1-((2S,4R)-4-hydroxy-2-((4-(4-methylthiazol-5-yl)benzyl)carbamoyl)pyrrolidin-1-yl)-3,3-dimethyl-1-oxobutan-2-yl)amino)-8-oxooctanoyl)piperazin-1-yl)prop-1-yn-1-yl)phenoxy)propyl) thiazole-4-carboxylic acid], the remaining activity at 0.3 µM in assay [2] stood at 64.8%.

These data come from patent US20240376094A2, “SELECTIVE BCL-XL PROTAC COMPOUNDS AND METHODS OF USE” (Les Laboratoires Servier, priority 2021, published 2024).
